In US5843954A, “Camptothecin derivatives, preparations thereof and antitumor agents” (priority 1994, dated 1998):
≈ marks a conversion by molar mass, not a printed value.

System: not listed separately
Test: Water solubility
Type: physicochemical
Settings: not given
`CCc1c2c(nc3ccc(O)cc13)-c1cc([C@@](O)(CC)C(=O)NCCN(C)C)c(COC(=O)c3cccc(F)c3)c(=O)n1C2` [Compound C38] showed a solubility of 6000 µg/mL (≈ 9.96 mM).
`CCc1c2c(nc3cc(F)c(C)cc13)-c1cc([C@@](O)(CC)C(=O)NCCN(C)C)c(COC(=O)c3ccc(OC)cc3)c(=O)n1C2` [Compound C26] gave a solubility of 9000 µg/mL (≈ 14.3 mM).
With `CCc1c2c(nc3cc(F)c(F)cc13)-c1cc([C@@](O)(CC)C(=O)NCCN(C)C)c(COC(=O)c3ccc(OC)cc3)c(=O)n1C2` [Compound C16] the solubility was 6000 µg/mL (≈ 9.45 mM).
For `CCc1c2c(nc3cc(F)c(C)cc13)-c1cc([C@@](O)(CC)C(=O)NCCN(C)C)c(COC(=O)CCSC)c(=O)n1C2` [Compound C25], the solubility was > 63000 µg/mL.
With `CCCC(=O)OCc1c([C@@](O)(CC)C(=O)NCCN(C)C)cc2n(c1=O)Cc1c-2nc2cc(F)c(F)cc2c1CC` [Compound C14] the solubility was > 60000 µg/mL.
In the case of `CCCC(=O)OCc1c([C@@](O)(CC)C(=O)NCCN(C)C)cc2n(c1=O)Cc1c-2nc2cc(F)c(C)cc2c1CC` [Compound C24], the solubility was 42000 µg/mL (≈ 74.1 mM).
With `CCCC(=O)OCc1c([C@@](O)(CC)C(=O)NCCN(C)C)cc2n(c1=O)Cc1c-2nc2cc(F)c(OC)cc2c1CC` [Compound C21] the solubility was > 63000 µg/mL.

System: not listed separately
Test: Antitumor activity for L1210 (life prolonging effect, mouse leukemia transplanted intraperitoneally)
Type: in vivo
Settings: mouse, in vivo, ip; numerator of therapeutic index; i.p. total dose; read-out: Maximum tolerable dose
Protocol: (§1) 5×10^5 cells of mouse leukemia L1210 were transplanted intraperitoneally to a group of six female CDF1 mice (7 weeks old, body weight 17-19 g). The test compound was administered intraperitoneally on day 1, 5 and 9 and its life prolonging effect was observed.
(§2) In a case of the administration of a test compound as an acid addition salt the test compound was dissolved in water. The total administration amount was 1.56 mg/kg-400 mg/kg. The antitumor activity was expressed by the value (T/C%) wherein T denotes the mean survival days in the drug administered group and C denotes those in the non administered group. In case of equal to or more than 125% the drug is considered to be effective.
`CCc1c2c(nc3ccc(O)cc13)-c1cc([C@@](O)(CC)C(=O)NCCN(C)C)c(COC(=O)c3cccc(F)c3)c(=O)n1C2` [Compound C38] gave an MTD of 200 mg/kg.
`CCc1c2c(nc3cc(F)c(C)cc13)-c1cc([C@@](O)(CC)C(=O)NCCN(C)C)c(COC(=O)c3ccc(OC)cc3)c(=O)n1C2` [Compound C26] gave an MTD of 50 mg/kg.
In the case of `CCc1c2c(nc3cc(F)c(F)cc13)-c1cc([C@@](O)(CC)C(=O)NCCN(C)C)c(COC(=O)c3ccc(OC)cc3)c(=O)n1C2` [Compound C16], the MTD was 12.5 mg/kg.
In the case of `CCc1c2c(nc3cc(F)c(C)cc13)-c1cc([C@@](O)(CC)C(=O)NCCN(C)C)c(COC(=O)CCSC)c(=O)n1C2` [Compound C25], the MTD was 12.5 mg/kg.
`CCCC(=O)OCc1c([C@@](O)(CC)C(=O)NCCN(C)C)cc2n(c1=O)Cc1c-2nc2cc(F)c(C)cc2c1CC` [Compound C24] showed an MTD of 25 mg/kg.
`CCCC(=O)OCc1c([C@@](O)(CC)C(=O)NCCN(C)C)cc2n(c1=O)Cc1c-2nc2cc(F)c(OC)cc2c1CC` [Compound C21] showed an MTD of 3.13 mg/kg.

System: mouse leukemia L1210
Test: as above
Type: in vivo
Settings: Mus musculus, L1210, ip; denominator of therapeutic index; i.p. total dose; read-out: Minimum effective dose
Protocol: as §1, §2
Work on `CCc1c2c(nc3ccc(O)cc13)-c1cc([C@@](O)(CC)C(=O)NCCN(C)C)c(COC(=O)c3cccc(F)c3)c(=O)n1C2` [Compound C38] yielded a minimal effective dose of 12.5 mg/kg.
`CCc1c2c(nc3cc(F)c(C)cc13)-c1cc([C@@](O)(CC)C(=O)NCCN(C)C)c(COC(=O)c3ccc(OC)cc3)c(=O)n1C2` [Compound C26] gave a minimal effective dose of 12.5 mg/kg.
`CCc1c2c(nc3cc(F)c(F)cc13)-c1cc([C@@](O)(CC)C(=O)NCCN(C)C)c(COC(=O)c3ccc(OC)cc3)c(=O)n1C2` [Compound C16] showed a minimal effective dose of 6.25 mg/kg.
For `CCc1c2c(nc3cc(F)c(C)cc13)-c1cc([C@@](O)(CC)C(=O)NCCN(C)C)c(COC(=O)CCSC)c(=O)n1C2` [Compound C25], the minimal effective dose was < 1.56 mg/kg.
With `CCCC(=O)OCc1c([C@@](O)(CC)C(=O)NCCN(C)C)cc2n(c1=O)Cc1c-2nc2cc(F)c(C)cc2c1CC` [Compound C24] the minimal effective dose was 1.56 mg/kg.
For `CCCC(=O)OCc1c([C@@](O)(CC)C(=O)NCCN(C)C)cc2n(c1=O)Cc1c-2nc2cc(F)c(OC)cc2c1CC` [Compound C21], the minimal effective dose was < 1.56 mg/kg.

Same assay, conditions: at optimum dose; group of six female CDF1 mice
With `CCc1c2c(nc3ccc(O)cc13)-c1cc([C@@](O)(CC)C(=O)NCCN(C)C)c(COC(=O)c3cccc(F)c3)c(=O)n1C2` [Compound C38] the 40-day survivors was 0/6.
In the case of `CCc1c2c(nc3cc(F)c(C)cc13)-c1cc([C@@](O)(CC)C(=O)NCCN(C)C)c(COC(=O)c3ccc(OC)cc3)c(=O)n1C2` [Compound C26], the 40-day survivors was 0/6.
For `CCc1c2c(nc3cc(F)c(F)cc13)-c1cc([C@@](O)(CC)C(=O)NCCN(C)C)c(COC(=O)c3ccc(OC)cc3)c(=O)n1C2` [Compound C16], the 40-day survivors was 0/6.
For `CCc1c2c(nc3cc(F)c(C)cc13)-c1cc([C@@](O)(CC)C(=O)NCCN(C)C)c(COC(=O)CCSC)c(=O)n1C2` [Compound C25], the 40-day survivors was 1/6.
With `CCCC(=O)OCc1c([C@@](O)(CC)C(=O)NCCN(C)C)cc2n(c1=O)Cc1c-2nc2cc(F)c(F)cc2c1CC` [Compound C14] the 40-day survivors was 1/6.
In the case of `CCCC(=O)OCc1c([C@@](O)(CC)C(=O)NCCN(C)C)cc2n(c1=O)Cc1c-2nc2cc(F)c(C)cc2c1CC` [Compound C24], the 40-day survivors was 1/6.
For `CCCC(=O)OCc1c([C@@](O)(CC)C(=O)NCCN(C)C)cc2n(c1=O)Cc1c-2nc2cc(F)c(OC)cc2c1CC` [Compound C21], the 40-day survivors was 0/6.

Same assay, conditions: i.p., L1210, CDF1 mice
With `CCc1c2c(nc3ccc(O)cc13)-c1cc([C@@](O)(CC)C(=O)NCCN(C)C)c(COC(=O)c3cccc(F)c3)c(=O)n1C2` [Compound C38] the “Therapeutic Index (Maximum tolerable dose/Minimum effective dose)” value was 16.
For `CCc1c2c(nc3cc(F)c(C)cc13)-c1cc([C@@](O)(CC)C(=O)NCCN(C)C)c(COC(=O)c3ccc(OC)cc3)c(=O)n1C2` [Compound C26], the “Therapeutic Index (Maximum tolerable dose/Minimum effective dose)” value was > 4.
With `CCc1c2c(nc3cc(F)c(F)cc13)-c1cc([C@@](O)(CC)C(=O)NCCN(C)C)c(COC(=O)c3ccc(OC)cc3)c(=O)n1C2` [Compound C16] the “Therapeutic Index (Maximum tolerable dose/Minimum effective dose)” value was 2.
In the case of `CCc1c2c(nc3cc(F)c(C)cc13)-c1cc([C@@](O)(CC)C(=O)NCCN(C)C)c(COC(=O)CCSC)c(=O)n1C2` [Compound C25], the “Therapeutic Index (Maximum tolerable dose/Minimum effective dose)” value was > 8.
In the case of `CCCC(=O)OCc1c([C@@](O)(CC)C(=O)NCCN(C)C)cc2n(c1=O)Cc1c-2nc2cc(F)c(C)cc2c1CC` [Compound C24], the “Therapeutic Index (Maximum tolerable dose/Minimum effective dose)” value was > 16.
With `CCCC(=O)OCc1c([C@@](O)(CC)C(=O)NCCN(C)C)cc2n(c1=O)Cc1c-2nc2cc(F)c(OC)cc2c1CC` [Compound C21] the “Therapeutic Index (Maximum tolerable dose/Minimum effective dose)” value was > 2.

System: not listed separately
Test: Acute toxicity test by intraperitoneal administration
Settings: mouse, in vivo, ip, ICR male mice, 1 week observation
Protocol: Acute toxicity test was conducted by intraperitoneal administration using a group of twenty ICR male mice (4 weeks old, body weight around 20 g).
LD50 value was calculated by the Richfield-Willcokson method from a lethal ratio observing the fate of mice during 1 week after administration of a test compound.
Compound `CCc1c2c(nc3ccc(O)cc13)-c1cc([C@@](O)(CC)C(=O)NCCN(C)C)c(COC(=O)c3cccc(F)c3)c(=O)n1C2` [Compound C38] has an LD50 at 168 h of 421 mg/kg.
With `CCc1c2c(nc3cc(F)c(C)cc13)-c1cc([C@@](O)(CC)C(=O)NCCN(C)C)c(COC(=O)c3ccc(OC)cc3)c(=O)n1C2` [Compound C26] the LD50 at 168 h was 113 mg/kg.
Work on `CCc1c2c(nc3cc(F)c(F)cc13)-c1cc([C@@](O)(CC)C(=O)NCCN(C)C)c(COC(=O)c3ccc(OC)cc3)c(=O)n1C2` [Compound C16] yielded an LD50 at 168 h of 65.6 mg/kg.
For `CCc1c2c(nc3cc(F)c(C)cc13)-c1cc([C@@](O)(CC)C(=O)NCCN(C)C)c(COC(=O)CCSC)c(=O)n1C2` [Compound C25], the LD50 at 168 h was 154 mg/kg.
In the case of `CCCC(=O)OCc1c([C@@](O)(CC)C(=O)NCCN(C)C)cc2n(c1=O)Cc1c-2nc2cc(F)c(F)cc2c1CC` [Compound C14], the LD50 at 168 h was 98.3 mg/kg.
`CCCC(=O)OCc1c([C@@](O)(CC)C(=O)NCCN(C)C)cc2n(c1=O)Cc1c-2nc2cc(F)c(C)cc2c1CC` [Compound C24] gave an LD50 at 168 h of 203 mg/kg.
In the case of `CCCC(=O)OCc1c([C@@](O)(CC)C(=O)NCCN(C)C)cc2n(c1=O)Cc1c-2nc2cc(F)c(OC)cc2c1CC` [Compound C21], the LD50 at 168 h was 124 mg/kg.
